According to patent publication US20240261417A1, “SOS1 DEGRADING AGENT AND PREPARATION METHOD THEREFOR AND APPLICATION THEREOF” (SHANGHAI LEADINGTAC PHARMACEUTICAL CO. LTD., priority 2021, published 2024):

What was measured:
KRAS-G12C/SOS1 = target: T1, KRAS-G12C/SOS1 (Homo sapiens, UniProt Q07889); test: KRAS-G12C/SOS1 binding assay (HTRF); conditions: inhibition of KRAS-G12C/SOS1 binding
T1 construct: purchased Cisbio 63ADKOOOCB16PEG
T1 sequence (Q07889 1-1333): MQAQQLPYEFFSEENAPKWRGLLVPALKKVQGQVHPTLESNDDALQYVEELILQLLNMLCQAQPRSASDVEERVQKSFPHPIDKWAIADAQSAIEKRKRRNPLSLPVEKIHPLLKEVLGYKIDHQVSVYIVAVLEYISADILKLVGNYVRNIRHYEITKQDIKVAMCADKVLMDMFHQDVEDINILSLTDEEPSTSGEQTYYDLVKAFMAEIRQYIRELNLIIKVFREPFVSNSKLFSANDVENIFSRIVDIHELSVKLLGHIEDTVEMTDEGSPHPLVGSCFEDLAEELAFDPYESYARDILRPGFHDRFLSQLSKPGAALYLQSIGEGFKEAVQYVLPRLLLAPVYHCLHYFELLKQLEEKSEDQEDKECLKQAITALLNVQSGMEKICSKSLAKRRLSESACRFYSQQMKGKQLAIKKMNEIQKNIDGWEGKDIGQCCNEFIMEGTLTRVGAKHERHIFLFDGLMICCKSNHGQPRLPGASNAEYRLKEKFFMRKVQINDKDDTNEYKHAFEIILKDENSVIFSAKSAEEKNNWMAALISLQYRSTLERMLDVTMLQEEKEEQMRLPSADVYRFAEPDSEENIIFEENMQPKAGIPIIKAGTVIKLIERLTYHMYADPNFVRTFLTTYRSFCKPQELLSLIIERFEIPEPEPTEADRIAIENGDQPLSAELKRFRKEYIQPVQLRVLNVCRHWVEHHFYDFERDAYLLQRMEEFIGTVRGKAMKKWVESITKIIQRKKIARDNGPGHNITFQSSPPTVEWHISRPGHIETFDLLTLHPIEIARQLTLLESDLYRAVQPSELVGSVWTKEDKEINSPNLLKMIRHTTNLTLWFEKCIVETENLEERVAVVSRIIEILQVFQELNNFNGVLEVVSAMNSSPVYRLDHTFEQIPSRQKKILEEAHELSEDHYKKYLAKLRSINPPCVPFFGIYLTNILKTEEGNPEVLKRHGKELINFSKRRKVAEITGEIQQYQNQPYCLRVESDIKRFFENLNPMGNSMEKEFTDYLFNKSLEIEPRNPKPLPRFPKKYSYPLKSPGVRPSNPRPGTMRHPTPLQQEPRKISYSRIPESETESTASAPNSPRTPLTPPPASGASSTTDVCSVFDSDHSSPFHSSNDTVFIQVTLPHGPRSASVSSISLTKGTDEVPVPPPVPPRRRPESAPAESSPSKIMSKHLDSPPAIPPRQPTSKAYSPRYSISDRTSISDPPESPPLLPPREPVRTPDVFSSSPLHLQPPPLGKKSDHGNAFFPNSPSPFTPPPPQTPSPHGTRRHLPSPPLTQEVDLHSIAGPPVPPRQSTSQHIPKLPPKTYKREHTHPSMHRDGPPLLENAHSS
Experimental: The following method was used to determine the extent of inhibition of KRAS-G12C/SOS1 binding by the preferred compounds of the present invention under in vitro conditions. In this method, the competitive inhibition of KRAS-G12C/SOS1 binding by the preferred compounds was assayed by the homogeneous time-resolved fluorescence (HTRF) technology using the KRAS-G12C/SOS1 binding assay kit (Cisbio, 63ADKOOOCB16PEG).
The experimental procedures were as follows (refer to the kit instructions for details): the compounds of the present invention were each firstly dissolved in DMSO at a concentration of 20 mM, and then diluted in an equal gradient with a buffer in the kit, so that the final concentrations of the test compounds in the reaction system were in a range of 10000 nM-0.04 nM, and the final concentration of DMSO was 0.5%. 2 μL of the compounds were each incubated with 4 μL of 1×Tag1-SOS1, 4 μL of 1×Tag2-KRAS-G12C (containing 10 μM guanosine triphosphate, GTP) at 25° C. for 15 min. Then 5 μL of 1× Anti-Tag1-Tb3+ and 5 μL of 1× Anti-Tag2-XL665 were added to the reaction system, and the mixture was incubated on ice for 3 h. After the incubation, the fluorescence intensity of each well was measured at the excitation wavelength of 337 nm, the fluorescence intensity of each well was read at the emission wavelengths of 620 nm and 665 nm on a microplate reader EnVision (PerkinElmer, 2105) in an HTRF mode, and the Ratio value was calculated by the formula Ratio=(665 nm/620 nm)×[…]. The inhibition rates of the compounds at each concentration were calculated by comparing the fluorescence intensity ratio with that of the control group, and then nonlinear curve fitting was performed by GraphPad Prism 8 in the logarithmic concentration-inhibition rate to obtain the IC50 values of the compounds, as shown in Table 1.

SOS1 protein = target: T2, SOS1 protein (Homo sapiens, UniProt Q07889); test: SOS1 degradation assay (Western blot), NCI-H358 cells; assay type: cell-based; design: The degradation of SOS1 by the compounds was investigated on KRAS G12C mutant human non-small cell lung cancer cells NCI-H358; host or cells: NCI-H358 (human cancer cell lines); conditions: SOS1 degradation, NCI-H358 cells, 24 h, Western blot; for DC50: read-out: NCI-H358 (G12C) DC50; for Dmax: read-out: NCI-H358 (G12C) Dmax
T2 sequence (Q07889 1-1333): T1 sequence (Q07889 1-1333)
In short: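 SOS1 degradation was assessed by densitometry of Western blots, relative to untreated controls, after 24 h compound exposure (0.03–3000 nM final, 37 °C, 5% CO2) of cells seeded at 5×10^5/well. Log concentration–response fitting gave DC50 and Dmax.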

Structure (SMILES) | IC50 (KRAS-G12C/SOS1) | DC50 (SOS1 protein) | Dmax (SOS1 protein)
CNCc1cccc(Cl)c1-c1csc([C@@H](C)Nc2nc(C)nc3cc(OC)c([C@H]4CC[C@H](C(=O)N5CCC(CCOCC6CCN(C(=O)c7ccc(Cl)c(N8CCC(=O)NC8=O)c7)CC6)CC5)CC4)cc23)c1 [Example 69, 1-(2-chloro-5-(4-((2-(1-((1R,4R)-4-(4-(((R)-1-(4-(2-chloro-6-((methylamino)methyl)phenyl)thien-2-yl)ethyl)amino)-7-methoxy-2-methylquinazolin-6-yl)cyclohexane-1-carbonyl)piperidin-4-yl)ethoxy)methyl)piperidine-1-carbonyl)phenyl)dihydropyrimidine-2,4(1H,3H)-dione] | ≤ 15 nM | < 50 nM | 50 to 80%
CNCc1ccccc1-c1csc([C@@H](C)Nc2nc(C)nc3cc(OC)c([C@H]4CC[C@H](C(=O)N(C)CCCC5CCN(C(=O)c6ccc(Cl)c(N7CCC(=O)NC7=O)c6)CC5)CC4)cc23)c1 [Example 47, (1R,4R)—N-(3-(1-(4-chloro-3-(2,4-dioxotetrahydropyrimidin-1(2H)-yl)benzoyl)piperidin-4-yl)propyl)-4-(7-methoxy-2-methyl-4-(((R)-1-(4-(2-((methylamino)methyl)phenyl)thien-2-yl)ethyl)amino)quinazolin-6-yl)-N-methylcyclohexane-1-carboxamide] | ≤ 15 nM | 1000 to 10000 nM | < 30%
COc1cc2nc(C)nc(N[C@H](C)c3cc(-c4c(Cl)cccc4CN(C)C)cs3)c2cc1[C@H]1CC[C@H](C(=O)N2CCC(OCCCC3CCN(C(=O)c4ccc(Cl)c(N5CCC(=O)NC5=O)c4)CC3)CC2)CC1 [Example 61, 1-(2-chloro-5-(4-(3-((1-((1R,4R)-4-(4-(((R)-1-(4-(2-chloro-6-((dimethylamino)methyl)phenyl)thien-2-yl)ethyl)amino)-7-methoxy-2-methylquinazolin-6-yl)cyclohexane-1-carbonyl)piperidin-4-yl)oxy)propyl)piperidine-1-carbonyl)phenyl)dihydropyrimidine-2,4(1H,3H)-dione] | ≤ 15 nM | 100 to 500 nM | 50 to 80%
COc1cc2nc(C)nc(N[C@H](C)c3cc(-c4c(Cl)cccc4CN(C)C)cs3)c2cc1[C@H]1CC[C@H](C(=O)N2CCC(COCC3CCN(C(=O)c4ccc(Cl)c(N5CCC(=O)NC5=O)c4)CC3)CC2)CC1 [Example 65, 1-(2-chloro-5-(4-(((1-((1R,4R)-4-(4-(((R)-1-(4-(2-chloro-6-((dimethylamino)methyl)phenyl)thien-2-yl)ethyl)amino)-7-methoxy-2-methylquinazolin-6-yl)cyclohexane-1-carbonyl)piperidin-4-yl)methoxy)methyl)piperidine-1-carbonyl)phenyl)dihydropyrimidine-2,4(1H,3H)-dione] | ≤ 15 nM | 1000 to 10000 nM | < 30%
COc1cc2nc(C)nc(N[C@H](C)c3cc(-c4c(Cl)cccc4CN(C)C)cs3)c2cc1[C@H]1CC[C@H](C(=O)N2CCC(CCCC3CCN(C(=O)c4ccc(Cl)c(N5CCC(=O)NC5=O)c4)CC3)CC2)CC1 [Example 79, 1-(2-chloro-5-(4-(3-(1-((1R,4R)-4-(4-(((R)-1-(4-(2-chloro-6-((dimethylamino)methyl)phenyl)thien-2-yl)ethyl)amino)-7-methoxy-2-methylquinazolin-6-yl)cyclohexane-1-carbonyl)piperidin-4-yl)propyl)piperidine-1-carbonyl)phenyl)dihydropyrimidine-2,4(1H,3H)-dione] | ≤ 15 nM | 50 to 100 nM | 50 to 80%
COc1cc2nc(C)nc(N[C@H](C)c3cc(-c4c(Cl)cccc4CN(C)C)cs3)c2cc1[C@H]1CC[C@H](C(=O)N2CCC(CCOCC3CCN(C(=O)c4ccc(C(F)(F)F)c(N5CCC(=O)NC5=O)c4)CC3)CC2)CC1 [Example 57, 1-(5-(4-((2-(1-((1R,4R)-4-(4-(((R)-1-(4-(2-chloro-6-((dimethylamino)methyl)phenyl)thien-2-yl)ethyl)amino)-7-methoxy-2-methylquinazolin-6-yl)cyclohexane-1-carbonyl)piperidin-4-yl)ethoxy)methyl)piperidine-1-carbonyl)-2-(trifluoromethyl)phenyl)dihydropyrimidine-2,4(1H,3H)-dione] | ≤ 15 nM | < 50 nM | 

Results, then the compound that gave them:

IC50 (KRAS-G12C/SOS1) | DC50 (SOS1 protein) | Dmax (SOS1 protein) | Structure (SMILES)
≤ 15 nM | < 50 nM | 50 to 80% | Cc1nc(N[C@H](C)c2cc(N)cc(C(F)(F)F)c2)c2cc([C@H]3CC[C@H](C(=O)N4CCN(CC5CCC6(CC5)CCN(C(=O)c5ccc(Cl)c(N7CCC(=O)NC7=O)c5)CC6)CC4)CC3)c(C)cc2n1 [Example 72, 1-(5-(9-((4-((1R,4R)-4-(4-(((R)-1-(3-amino-5-(trifluoromethyl)phenyl)ethyl)amino)-2,7-dimethylquinazolin-6-yl)cyclohexane-1-carbonyl)piperazin-1-yl)methyl)-3-azaspiro[5.5]undecane-3-carbonyl)-2-chlorophenyl)dihydropyrimidine-2,4(1H,3H)-dione]
≤ 15 nM | < 50 nM | 80 to 100% | COc1cc2nc(C)nc(N[C@H](C)c3cc(N)cc(C(F)(F)F)c3)c2cc1[C@H]1CC[C@H](C(=O)N2CCN(CCN3CCC4(CC3)CCN(C(=O)c3ccc(Cl)c(N5CCC(=O)NC5=O)c3)CC4)CC2)CC1 [Example 3, 1-(5-(9-(2-(4-((1R,4R)-4-(4-(((R)-1-(3-amino-5-(trifluoromethyl)phenyl)ethyl)amino)-7-methoxy-2-methylquinazolin-6-yl)cyclohexane-1-carbonyl)piperazin-1-yl)ethyl)-3,9-diazaspiro[5.5]undecane-3-carbonyl)-2-chlorophenyl)dihydropyrimidine-2,4(1H,3H)-dione]
≤ 15 nM | < 50 nM | 50 to 80% | [2H]C([2H])(OCC1CCN(C(=O)[C@H]2CC[C@H](c3cc4c(N[C@H](C)c5cc(N)cc(C(F)(F)F)c5)nc(C)nc4cc3OC)CC2)CC1)C1CCN(C(=O)c2ccc(Cl)c(N3CCC(=O)NC3=O)c2)CC1 [Example 75, 1-(5-(4-(((1-((1R,4R)-4-(4-(((R)-1-(3-amino-5-(trifluoromethyl)phenyl)ethyl)amino)-7-methoxy-2-methylquinazolin-6-yl)cyclohexane-1-carbonyl)piperidin-4-yl)methoxy)methyl-d2)piperidine-1-carbonyl)-2-chlorophenyl)dihydropyrimidine-2,4(1H,3H)-dione]
